Structures are written as SMILES. Active and inactive are the calls of the source. No cut-off for these calls is given here.

Sequence of Keap1/Nrf2 (Homo sapiens) (Q14145 whole entry, looked up, one chain of several): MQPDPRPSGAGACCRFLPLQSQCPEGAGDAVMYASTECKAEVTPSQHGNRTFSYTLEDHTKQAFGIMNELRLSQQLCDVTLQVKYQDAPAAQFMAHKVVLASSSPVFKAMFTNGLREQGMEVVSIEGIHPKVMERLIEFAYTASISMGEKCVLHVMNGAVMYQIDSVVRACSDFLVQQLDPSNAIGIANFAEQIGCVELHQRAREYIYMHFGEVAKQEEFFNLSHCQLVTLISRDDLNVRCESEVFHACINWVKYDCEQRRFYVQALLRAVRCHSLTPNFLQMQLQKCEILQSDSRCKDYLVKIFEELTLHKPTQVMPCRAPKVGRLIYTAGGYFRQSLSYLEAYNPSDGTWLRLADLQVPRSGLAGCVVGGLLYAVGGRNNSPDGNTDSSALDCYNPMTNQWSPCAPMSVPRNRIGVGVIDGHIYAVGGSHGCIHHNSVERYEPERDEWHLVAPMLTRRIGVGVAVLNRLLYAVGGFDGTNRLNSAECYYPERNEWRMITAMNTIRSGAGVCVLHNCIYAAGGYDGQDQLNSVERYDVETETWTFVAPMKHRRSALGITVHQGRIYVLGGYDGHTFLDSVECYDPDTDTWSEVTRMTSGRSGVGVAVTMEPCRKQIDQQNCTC

In the first test the target is T1, Nuclear factor erythroid 2-related factor 2 (Homo sapiens) (UniProt Q16236).
T1 sequence (whole entry): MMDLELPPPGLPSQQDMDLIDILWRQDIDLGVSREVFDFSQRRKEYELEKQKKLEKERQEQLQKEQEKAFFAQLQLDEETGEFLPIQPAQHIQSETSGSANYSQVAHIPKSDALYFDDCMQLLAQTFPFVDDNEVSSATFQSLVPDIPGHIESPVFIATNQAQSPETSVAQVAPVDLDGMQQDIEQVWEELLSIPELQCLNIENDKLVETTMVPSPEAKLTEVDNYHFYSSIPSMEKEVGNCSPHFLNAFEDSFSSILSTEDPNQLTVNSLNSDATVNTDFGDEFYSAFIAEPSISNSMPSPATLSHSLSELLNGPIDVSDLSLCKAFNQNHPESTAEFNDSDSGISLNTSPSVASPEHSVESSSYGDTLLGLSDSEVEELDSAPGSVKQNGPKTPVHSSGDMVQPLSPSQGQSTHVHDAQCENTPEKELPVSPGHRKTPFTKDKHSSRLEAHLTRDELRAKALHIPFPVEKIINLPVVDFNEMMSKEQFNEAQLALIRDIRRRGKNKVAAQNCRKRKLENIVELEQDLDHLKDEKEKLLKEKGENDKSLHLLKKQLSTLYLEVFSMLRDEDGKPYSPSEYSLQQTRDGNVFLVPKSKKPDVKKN
Briefly: Agonist activity at Nrf2 (unknown origin) at 10 uM by dual-luciferase reporter gene assay. The following applies: filed as agonist. A general note: Reporter assays use an easily measured gene product as a stand-in for the process of interest.
For `CC(C)(C)c1cc(O)ccc1O`, the fold change (FC) was determined as 1.7.

Another test concerns the target T1, Nuclear factor erythroid 2-related factor 2 (Homo sapiens). Briefly: Agonist activity at Nrf2 (unknown origin) at 20 uM by dual-luciferase reporter gene assay. Particulars: filed as agonist.
Consider `CC1(C)CCc2c(c(Br)cc3cc(-c4ccccc4)c(=O)oc23)O1`, for which the fold change (FC) is 2.57. Turning to `CC(C)=CCc1c(OC(=O)NCCc2c[nH]c3ccc(C)cc23)ccc2ccc(=O)oc12`, the fold change (FC) was 0.95. As for `COc1ccccc1-c1cc2cc(Br)c3c(c2oc1=O)CCC(C)(C)O3`, the fold change (FC) is 1.58. On to `Cc1ccc(-c2cc3cc(Br)c4c(c3oc2=O)CCC(C)(C)O4)cc1`, for which the fold change (FC) came out at 1.61. As to `CC(C)=CCc1c(OC(=O)Cc2c[nH]c3ccccc23)ccc2ccc(=O)oc12`, the fold change (FC) worked out at 1.55. As for `CC(C)=CCc1c(OC(=O)Cc2c[nH]c3cc(Cl)ccc23)ccc2ccc(=O)oc12`, the fold change (FC) came out at 1.65. Take `CC1(C)CCc2c(c(Br)cc3cc(-c4ccc(OC(F)(F)F)cc4)c(=O)oc23)O1`: the fold change (FC) worked out at 1.69. Still for that read-out and setting: the result for `COc1ccc2[nH]cc(CCNC(=O)Oc3ccc4ccc(=O)oc4c3CC=C(C)C)c2c1` reads 0.98; that for `COc1ccc2c(CC(=O)Oc3ccc4ccc(=O)oc4c3CC=C(C)C)c[nH]c2c1`, 1.51; that for `COc1ccc2[nH]cc(CC(=O)Oc3ccc4ccc(=O)oc4c3CC=C(C)C)c2c1`, 1.59. Turning to `CC1(C)CCc2c(c(Br)cc3cc(-c4cccc(C(F)(F)F)c4)c(=O)oc23)O1`, the fold change (FC) was 1.52. Take `CC(C)=CCc1c(OC(=O)Cc2c[nH]c3ccc(C)cc23)ccc2ccc(=O)oc12`: the fold change (FC) stood at 1.51.

Regarding `COc1ccc(-c2cc3cc(Br)c4c(c3oc2=O)CCC(C)(C)O4)cc1`, the fold change (FC) came to 1.53.

For the molecule `CC(C)=CCc1c(OC(=O)Cc2c[nH]c3ccc(Br)cc23)ccc2ccc(=O)oc12`, the fold change (FC) stood at 1.41. In the case of `CC(C)=CCc1c(OC(=O)NCCc2c(C)[nH]c3ccccc23)ccc2ccc(=O)oc12`, the fold change (FC) turned out to be 0.61. For the molecule `CC(C)=CCc1c(OC(=O)Cc2c(C)[nH]c3ccccc23)ccc2ccc(=O)oc12`, the fold change (FC) is 1.51.

With `CC1(C)CCc2c(c(Br)cc3cc(-c4ccc(F)cc4)c(=O)oc23)O1`, the fold change (FC) is 1.26. The same measure, in the same setting: as for `COc1ccc2c(CC(C)NC(=O)Oc3ccc4ccc(=O)oc4c3CC=C(C)C)c[nH]c2c1` (centres undefined), the figure is 0.73; as for `COc1ccc2[nH]c(C)c(CC(=O)Oc3ccc4ccc(=O)oc4c3CC=C(C)C)c2c1`, 1.56. On to `CC1(C)CCc2c(c(Br)cc3cc(-c4ccc(C(F)(F)F)cc4)c(=O)oc23)O1`, for which the fold change (FC) worked out at 2.04.

Regarding `COc1ccc2ccc(=O)oc2c1CC=C(C)C`, the fold change (FC) was 1.18. Consider `COc1cccc(-c2cc3cc(Br)c4c(c3oc2=O)CCC(C)(C)O4)c1`, for which the fold change (FC) came to 1.41. As for `CC(C)=CCc1c(OC(=O)NCCc2c[nH]c3ccc(Cl)cc23)ccc2ccc(=O)oc12`, the fold change (FC) is 0.79. Take `CC(C)=CCc1c(OC(=O)NCCc2c[nH]c3ccccc23)ccc2ccc(=O)oc12`: the fold change (FC) stood at 0.95.

The next test deals with T2, Nuclear factor erythroid 2-related factor 2 (Homo sapiens, UniProt Q16236).
T2 sequence (Q16236 whole entry): T1 sequence (whole entry)
In words: Activation of Nrf2 in HEK293T cells. The format is cell-based.
Settings: not given
Usually EC50 stands for the concentration that produces a half-maximal response. High values mean a less potent agent, low ones a more potent agent. `CC1(C)CCc2c(c(Br)cc3cc(-c4ccccc4)c(=O)oc23)O1` registered an EC50 of 2.9 µM.

In turn, `CC1(C)CCc2c(c(Br)cc3cc(-c4ccc(C(F)(F)F)cc4)c(=O)oc23)O1` returned an EC50 of 4.55 µM.

In another test the target is Kelch-like ECH-associated protein 1 (Homo sapiens) (UniProt Q14145). Briefly: Binding affinity to Keap1 in human A549 cells assessed as thermal stabilization by measuring change in melting temperature at 10 uM by cellular thermal shift assay. The format is cell-based.
Sequence of Kelch-like ECH-associated protein 1 (Homo sapiens) (Q14145 whole entry): as the sequence (Q14145 whole entry, looked up, one chain of several) above
Settings: not given
With `CC1(C)CCc2c(c(Br)cc3cc(-c4ccccc4)c(=O)oc23)O1`, the outcome was Active.

The next test has as its target Keap1/Nrf2 (Homo sapiens) (UniProt Q16236+Q14145). Briefly: Inhibition of Keap1-Nrf2 protein-protein interaction in human A549 cells assessed as reduction in Nrf2 ubiquitination by immunoprecipitation analysis.
Settings: not given
Format: cell-based.
Consider `CC1(C)CCc2c(c(Br)cc3cc(-c4ccccc4)c(=O)oc23)O1`, for which the inhibition entry is “Active”.

(Values after ChEMBL document CHEMBL5131442, “Design and synthesis of Osthole-based compounds as potential Nrf2 agonists” (Bioorg Med Chem Lett, 2022).)
